Biological target: hFEN1 (Homo sapiens (Human), UniProt P39748)
Test: Enzymatic IC50 assay, FAM-labeled DNA oligomer substrate, fluorescence intensity (FEN1)
Format: biochemical
Details: hFEN1 70 pM, substrate 100 nM, reaction time 20 minutes, 23° C.
Procedure: FEN1, EXO1 or XPG enzyme was incubated with compound or vehicle (DMSO) and the FAM-labeled DNA oligomer substrate in a microtiter plate. The stop buffer contains EDTA to stop the enzymatic reaction. The plate is read for fluorescence intensity. The high control (DMSO) with high fluorescence intensity represents no inhibition of enzymatic reaction while the low control (10 μM) with low fluorescence intensity represents full inhibition of enzymatic reaction.
• FEN1 • hFEN1: 70 pM • Substrate: 100 nM • Reaction time: 20 minutes • EXO1 • hEXO1: 6 nM, Isoforml • Substrate: 30 nM • Reaction time: 60 minutes • XPG • hXPG: 100 nM • Substrate: 100 nM • Reaction time: 120 minutes
Annealing Buffer: 50 mM Tris-HCl, 50 mM NaCl, 1 mM DTT Assay buffer: 50 mM Tris-HCl pH 8.0, 10 mM MgCl2, 0.01% BSA, 1 mM DTT Stop buffer: 50 mM EDTA in assay buffer Temperature: 23° C. Total volume: 40 μl Controls: • 0% inhibition control: DMSO • 100% inhibition control: 10 μM (final) 5-chloro-3-hydroxy-1,3-dihydroquinazoline-2,4-dione Enzyme Reaction and Detection: • 1. Prepare 25 μM intermediate stock of the substrate by diluting SEQ ID NO:1, SEQ ID NO:2, and SEQ ID NO:3 in annealing buffer, in a PCR tube. • 2. Place the PCR tube on a heat block, heat at 95° C. for 3 minutes, then drop in 0.2° C. increments over 2 minutes, stopping at 25° C. • 3. Remove the tube and let the tube cool at room temperature. • 4. Transfer 10 μL of 3× final concentration test compounds or DMSO to the appropriate wells of a microtiter plate. • 5. Transfer 10 μL of 3× final concentration enzyme in assay buffer or assay buffer alone to the appropriate wells. • 6. Incubate the plate at room temperature for 15 minutes. • 7. Transfer 10 μL of 3× substrate in assay buffer to all the test wells. • 8. Incubate the plate at room temperature for prescribed reaction time. • 9. Centrifuge the plate at 1000 rpm for 1 minute. • 10. Transfer 10 μL of stop buffer to all the test wells. • 11. Centrifuge the plate at 1000 rpm for 1 minute. • 12. Read the plate on a plate reader.

Sequence of hFEN1 (P39748 whole entry): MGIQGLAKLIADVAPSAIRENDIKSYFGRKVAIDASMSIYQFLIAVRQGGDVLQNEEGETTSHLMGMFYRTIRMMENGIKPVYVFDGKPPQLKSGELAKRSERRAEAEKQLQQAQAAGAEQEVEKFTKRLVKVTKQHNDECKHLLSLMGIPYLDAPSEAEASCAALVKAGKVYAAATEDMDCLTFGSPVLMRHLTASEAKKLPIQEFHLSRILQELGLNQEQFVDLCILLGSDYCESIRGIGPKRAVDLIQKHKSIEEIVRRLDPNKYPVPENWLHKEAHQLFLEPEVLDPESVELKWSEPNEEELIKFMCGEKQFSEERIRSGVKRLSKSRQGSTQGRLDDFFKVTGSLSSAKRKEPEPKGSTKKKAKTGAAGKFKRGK

| Compound | IC50 |
| --- | --- |
| COc1ccc(Cn2c(=O)c(O)c(C(=O)O)c3sccc32)cc1OC [Example 71, 4-(3,4-dimethoxybenzyl)-6-hydroxy-5-oxo-4,5-dihydrothieno[3,2-b]pyridine-7-carboxylic acid] | 250 to 750 nM |
| Nc1ccc(Cn2c(=O)c(O)c(C(=O)O)c3sccc32)cc1Cl [Example 73, 4-(4-amino-3-chlorobenzyl)-6-hydroxy-5-oxo-4,5-dihydrothieno[3,2-b]pyridine-7-carboxylic acid] | 250 to 750 nM |
| O=C(O)c1c(O)c(=O)n(CC2COCCO2)c2ccsc12 (stereo not shown) [Example 74, 4-((1,4-dioxan-2-yl)methyl)-6-hydroxy-5-oxo-4,5-dihydrothieno[3,2-b]pyridine-7-carboxylic acid] | 2250 to 10000 nM |
| O=C1CC(Cn2c(=O)c(O)c(C(=O)O)c3sccc32)CN1 (stereo not shown) [Example 76, 6-hydroxy-5-oxo-4-[(5-oxopyrrolidin-3-yl)methyl]-4,5-dihydrothieno[3,2-b]pyridine-7-carboxylic acid] | 250 to 750 nM |
| O=C(O)c1c(O)c(=O)n(Cc2ccc3ccc(=O)[nH]c3c2)c2ccsc12 [Example 77, 6-hydroxy-5-oxo-4-[(2-oxo-1,2-dihydroquinolin-7-yl)methyl]-4,5-dihydrothieno[3,2-b]pyridine-7-carboxylic acid] | 250 to 750 nM |
| O=C(O)c1c(O)c(=O)n(CC2CCCOC2)c2ccsc12 (stereo not shown) [Example 79, 6-hydroxy-5-oxo-4-[(tetrahydro-2H-pyran-3-yl)methyl]-4,5-dihydrothieno[3,2-b]pyridine-7-carboxylic acid] | 2250 to 10000 nM |
| O=C(O)c1c(O)c(=O)n(CC2COc3ccccc3C2)c2ccsc12 (stereo not shown) [Example 80, 4-(chroman-3-ylmethyl)-6-hydroxy-5-oxo-4,5-dihydrothieno[3,2-b]pyridine-7-carboxylic acid] | 2250 to 10000 nM |
| Cc1cc(Cn2c(=O)c(O)c(C(=O)O)c3sccc32)no1 [Example 82, 6-hydroxy-4-[(5-methylisoxazol-3-yl)methyl]-5-oxo-4,5-dihydrothieno[3,2-b]pyridine-7-carboxylic acid] | 750 to 2250 nM |
| COc1ccc(Cn2c(=O)c(O)c(C(=O)O)c3sccc32)cc1NC(C)=O [Example 89, 4-(3-acetamido-4-methoxybenzyl)-6-hydroxy-5-oxo-4,5-dihydrothieno[3,2-b]pyridine-7-carboxylic acid] | 250 to 750 nM |
| Cc1nnc(Cn2c(=O)c(O)c(C(=O)O)c3sccc32)s1 [Example 94, 6-hydroxy-4-[(5-methyl-1,3,4-thiadiazol-2-yl)methyl]-5-oxo-4,5-dihydrothieno[3,2-b]pyridine-7-carboxylic acid] | 250 to 750 nM |
| Cc1ncc(Cn2c(=O)c(O)c(C(=O)O)c3sccc32)o1 [Example 95, 6-hydroxy-4-[(2-methyloxazol-5-yl)methyl]-5-oxo-4,5-dihydrothieno[3,2-b]pyridine-7-carboxylic acid] | 250 to 750 nM |
| O=C(O)c1c(O)c(=O)n(Cc2cn3ccccc3n2)c2ccsc12 [Example 102, 6-hydroxy-4-(imidazo[1,2-a]pyridin-2-ylmethyl)-5-oxo-4,5-dihydrothieno[3,2-b]pyridine-7-carboxylic acid] | 750 to 2250 nM |
| O=C(O)c1c(O)c(=O)n(Cc2cncc(-c3ccccc3)c2)c2ccsc12 [Example 103, 6-hydroxy-5-oxo-4-[(5-phenylpyridin-3-yl)methyl]-4,5-dihydrothieno[3,2-b]pyridine-7-carboxylic acid] | 250 to 750 nM |
| O=C(O)c1c(O)c(=O)n(Cc2cncc3ccccc23)c2ccsc12 [Example 104, 6-hydroxy-4-(isoquinolin-4-ylmethyl)-5-oxo-4,5-dihydrothieno[3,2-b]pyridine-7-carboxylic acid] | 2250 to 10000 nM |
| O=C(O)c1c(O)c(=O)n(Cc2cnn(-c3ccc(Cl)cc3)c2)c2ccsc12 [Example 105, 4-{[1-(4-chlorophenyl)-1H-pyrazol-4-yl]methyl}-6-hydroxy-5-oxo-4,5-dihydrothieno[3,2-b]pyridine-7-carboxylic acid] | 250 to 750 nM |
| CS(=O)(=O)Nc1ccccc1-n1cc(Cn2c(=O)c(O)c(C(=O)O)c3sccc32)cn1 [Example 108, 6-hydroxy-4-{[1-(2-(methylsulfonamido)phenyl]-1H-pyrazol-4-yl}methyl)-5-oxo-4,5-dihydrothieno[3,2-b]pyridine-7-carboxylic acid] | 250 to 750 nM |
| CC(=O)Nc1ccccc1-n1cc(Cn2c(=O)c(O)c(C(=O)O)c3sccc32)cn1 [Example 109, 4-{[1-(2-acetamidophenyl)-1H-pyrazol-4-yl]methyl}-6-hydroxy-5-oxo-4,5-dihydrothieno[3,2-b]pyridine-7-carboxylic acid] | 750 to 2250 nM |
| O=C(O)c1c(O)c(=O)n(Cc2cnn(-c3ccncc3)c2)c2ccsc12 [Example 112, 6-hydroxy-5-oxo-4-{[1-(pyridin-4-yl)-1H-pyrazol-4-yl]methyl}-4,5-dihydrothieno[3,2-b]pyridine-7-carboxylic acid] | 250 to 750 nM |
| O=C(O)c1c(O)c(=O)n(Cc2cnn(CC(F)(F)F)c2)c2ccsc12 [Example 137, 6-hydroxy-5-oxo-4-{[1-(2,2,2-trifluoroethyl)-1H-pyrazol-4-yl]methyl}-4,5-dihydrothieno[3,2-b]pyridine-7-carboxylic acid] | < 200 nM |
| O=C(O)c1c(O)c(=O)n(Cc2cnn(Cc3cn4cccnc4n3)c2)c2ccsc12 [Example 139, 6-hydroxy-4-{[1-(imidazo[1,2-a]pyrimidin-2-ylmethyl)-1H-pyrazol-4-yl]methyl}-5-oxo-4,5-dihydrothieno[3,2-b]pyridine-7-carboxylic acid] | < 200 nM |
| O=C(O)c1c(O)c(=O)n(Cc2cnn(CC3CCS(=O)(=O)CC3)c2)c2ccsc12 [Example 145] | 250 to 750 nM |

Next, values leading:

| IC50 | Compound |
| --- | --- |
| < 200 nM | O=C(O)c1c(O)c(=O)n(Cc2nnc(-c3ccccc3)s2)c2ccsc12 [Example 93, 6-hydroxy-5-oxo-4-[(5-phenyl-1,3,4-thiadiazol-2-yl)methyl]-4,5-dihydrothieno[3,2-b]pyridine-7-carboxylic acid] |
| < 200 nM | COc1ccccc1-n1cc(Cn2c(=O)c(O)c(C(=O)O)c3sccc32)cn1 [Example 106, 6-hydroxy-4-{[1-(2-methoxyphenyl)-1H-pyrazol-4-yl]methyl}-5-oxo-4,5-dihydrothieno[3,2-b]pyridine-7-carboxylic acid] |
| < 200 nM | O=C(O)c1c(O)c(=O)n(Cc2cnn(-c3ccccc3[N+](=O)[O-])c2)c2ccsc12 [Example 107, 6-hydroxy-4-{[1-(2-nitrophenyl)-1H-pyrazol-4-yl]methyl}-5-oxo-4,5-dihydrothieno[3,2-b]pyridine-7-carboxylic acid] |
| < 200 nM | N#Cc1ccc(-n2cc(Cn3c(=O)c(O)c(C(=O)O)c4sccc43)cn2)cc1 [Example 110, 4-{[1-(4-cyanophenyl)-1H-pyrazol-4-yl]methyl}-6-hydroxy-5-oxo-4,5-dihydrothieno[3,2-b]pyridine-7-carboxylic acid] |
| < 200 nM | Nc1ccc(-n2cc(Cn3c(=O)c(O)c(C(=O)O)c4sccc43)cn2)cc1 [Example 118, 4-{[1-(4-aminophenyl)-1H-pyrazol-4-yl]methyl}-6-hydroxy-5-oxo-4,5-dihydrothieno[3,2-b]pyridine-7-carboxylic acid] |
| < 200 nM | O=C(O)c1c(O)c(=O)n(Cc2cnn(Cc3cncs3)c2)c2ccsc12 [Example 123, 6-hydroxy-5-oxo-4-{[1-(thiazol-5-ylmethyl)-1H-pyrazol-4-yl]methyl}-4,5-dihydrothieno[3,2-b]pyridine-7-carboxylic acid] |
| < 200 nM | Cn1nccc1Cn1cc(Cn2c(=O)c(O)c(C(=O)O)c3sccc32)cn1 [Example 124, 6-hydroxy-4-({1-[(1-methyl-1H-pyrazol-5-yl)methyl]-1H-pyrazol-4-yl}methyl)-5-oxo-4,5-dihydrothieno[3,2-b]pyridine-7-carboxylic acid] |
| < 200 nM | COc1cc(Cn2cc(Cn3c(=O)c(O)c(C(=O)O)c4sccc43)cn2)ccn1 [Example 129, 6-hydroxy-4-({1-[(2-methoxypyridin-4-yl)methyl]-1H-pyrazol-4-yl}methyl)-5-oxo-4,5-dihydrothieno[3,2-b]pyridine-7-carboxylic acid] |
| < 200 nM | Cc1nn(C)cc1Cn1cc(Cn2c(=O)c(O)c(C(=O)O)c3sccc32)cn1 [Example 134, 4-({1-[(1,3-dimethyl-1H-pyrazol-4-yl)methyl]-1H-pyrazol-4-yl}methyl)-6-hydroxy-5-oxo-4,5-dihydrothieno[3,2-b]pyridine-7-carboxylic acid] |
| < 200 nM | O=C(O)c1c(O)c(=O)n(Cc2cnn(Cc3cncnc3)c2)c2ccsc12 [Example 135, 6-hydroxy-5-oxo-4-{[1-(pyrimidin-5-ylmethyl)-1H-pyrazol-4-yl]methyl}-4,5-dihydrothieno[3,2-b]pyridine-7-carboxylic acid] |

Reference: patent publication US11584755B2 (IDEAYA BIOSCIENCES, INC., priority 2017, dated 2023)
